Literature values, collected in patent publication US7592468B2, “Production of Δ 9 tetrahydrocannabinol” (Resolution Chemicals Limited, priority 2003, dated 2009).

Conditions: greater than Δ8-THC

In the case of `CCCCCc1cc(O)c2c(c1)OC(C)(C)[C@@H]1CCC(C)=C[C@@H]21` [Δ9-THC, Delta 9 tetrahydrocannabinol], the “psychomimetic activity relative to Δ8-THC” value is listed as 20 times.
